According to ChEMBL document CHEMBL1143081, “Identification of 1S,2R-milnacipran analogs as potent norepinephrine and serotonin transporter inhibitors” (Bioorg Med Chem Lett, 2008):

Legend:
[1] = target: Sodium-dependent serotonin transporter (Homo sapiens, UniProt P31645)
[2] = target: Sodium-dependent noradrenaline transporter (Homo sapiens, UniProt P23975)
[3] = target: Sodium-dependent dopamine transporter (Homo sapiens, UniProt Q01959)
[4] = Metabolic stability in human liver microsomes assessed as systemic clearance; format: ADME, Microsome
[5] = Lipophilicity, Log D of the compound; format: physicochemical; details: octanol/water
[6] = Partition coefficient, log P of the compound; format: physicochemical; details: octanol/water
[7] = Elimination half life in human; format: ADME, organism-based; details: in vivo
[8] = clinical; details: human, in vivo, po
Description: Oral bioavailability in human

[9] = Apparent permeability across human Caco-2 cells; format: ADME, cell-based
[10] = physchem
Description: Dissociation constant, pKa of the compound

[11] = Renal clearance in human; format: ADME, organism-based, Kidney; details: in vivo, read-out: CL_renal

Sequence of Sodium-dependent noradrenaline transporter (P23975 whole entry): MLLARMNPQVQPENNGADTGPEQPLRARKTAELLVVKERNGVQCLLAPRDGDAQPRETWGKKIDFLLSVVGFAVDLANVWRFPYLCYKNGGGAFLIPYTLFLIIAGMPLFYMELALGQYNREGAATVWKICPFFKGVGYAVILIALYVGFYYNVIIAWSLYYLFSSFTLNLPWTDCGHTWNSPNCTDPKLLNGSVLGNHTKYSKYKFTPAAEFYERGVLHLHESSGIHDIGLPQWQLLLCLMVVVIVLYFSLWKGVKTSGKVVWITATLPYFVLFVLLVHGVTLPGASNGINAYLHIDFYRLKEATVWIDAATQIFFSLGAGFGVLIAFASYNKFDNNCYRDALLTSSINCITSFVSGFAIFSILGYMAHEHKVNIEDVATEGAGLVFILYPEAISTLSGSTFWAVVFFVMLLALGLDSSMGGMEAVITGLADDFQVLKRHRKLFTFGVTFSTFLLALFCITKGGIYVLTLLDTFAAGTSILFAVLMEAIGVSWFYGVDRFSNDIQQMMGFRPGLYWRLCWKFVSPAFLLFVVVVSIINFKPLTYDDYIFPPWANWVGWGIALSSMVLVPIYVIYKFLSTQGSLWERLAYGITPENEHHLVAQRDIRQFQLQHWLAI
Sequence of Sodium-dependent dopamine transporter (Q01959 whole entry): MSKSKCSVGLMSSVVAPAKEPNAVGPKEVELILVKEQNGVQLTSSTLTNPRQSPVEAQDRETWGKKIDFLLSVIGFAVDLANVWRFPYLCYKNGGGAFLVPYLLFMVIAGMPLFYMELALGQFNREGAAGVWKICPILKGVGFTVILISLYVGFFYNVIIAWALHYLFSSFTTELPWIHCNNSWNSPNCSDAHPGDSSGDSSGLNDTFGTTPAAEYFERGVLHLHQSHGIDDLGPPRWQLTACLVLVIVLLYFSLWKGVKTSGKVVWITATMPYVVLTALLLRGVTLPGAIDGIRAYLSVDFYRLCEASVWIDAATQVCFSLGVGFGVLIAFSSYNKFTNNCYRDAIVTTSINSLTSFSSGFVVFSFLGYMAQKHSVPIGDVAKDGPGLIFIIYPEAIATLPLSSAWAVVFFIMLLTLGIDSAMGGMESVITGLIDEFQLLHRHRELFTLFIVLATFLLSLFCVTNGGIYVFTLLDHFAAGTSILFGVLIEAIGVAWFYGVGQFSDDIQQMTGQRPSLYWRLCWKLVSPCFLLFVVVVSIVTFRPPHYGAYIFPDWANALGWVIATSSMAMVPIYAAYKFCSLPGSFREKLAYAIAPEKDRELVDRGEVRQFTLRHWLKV
Sequence of Sodium-dependent serotonin transporter (P31645 whole entry): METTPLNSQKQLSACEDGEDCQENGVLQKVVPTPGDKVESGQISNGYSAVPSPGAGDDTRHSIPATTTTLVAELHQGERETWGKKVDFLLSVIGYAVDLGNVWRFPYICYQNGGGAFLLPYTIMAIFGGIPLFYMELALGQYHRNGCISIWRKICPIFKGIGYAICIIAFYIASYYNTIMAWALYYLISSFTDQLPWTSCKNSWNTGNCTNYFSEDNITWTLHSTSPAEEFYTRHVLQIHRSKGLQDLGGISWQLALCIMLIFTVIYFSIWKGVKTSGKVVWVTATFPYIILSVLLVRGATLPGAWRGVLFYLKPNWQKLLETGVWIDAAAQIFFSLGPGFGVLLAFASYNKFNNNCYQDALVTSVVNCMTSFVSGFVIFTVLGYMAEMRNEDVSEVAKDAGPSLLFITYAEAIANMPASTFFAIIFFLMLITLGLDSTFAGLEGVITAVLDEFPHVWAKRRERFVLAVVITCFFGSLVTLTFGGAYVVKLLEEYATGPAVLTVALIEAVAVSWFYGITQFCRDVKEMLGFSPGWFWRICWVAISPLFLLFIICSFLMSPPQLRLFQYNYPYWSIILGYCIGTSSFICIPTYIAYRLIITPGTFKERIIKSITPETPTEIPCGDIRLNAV

SMILES | IC50 [1] | IC50 [2] | IC50 [3] | further results
CCN(CC)C(=O)[C@@]1(c2ccc3sccc3c2)C[C@H]1CN | 1100 nM | 47 nM | 1300 nM | –
C=CCN(CC)C(=O)[C@@]1(c2ccc3c(c2)OCCO3)C[C@H]1CN | 65 nM | 2.9 nM | > 10000 nM | CLhep predicted [4]: 8.8 mL/min/kg
C=CCN(CC=C)C(=O)[C@@]1(c2ccc3c(c2)OCCO3)C[C@H]1CN | 32 nM | 3.5 nM | 6300 nM | CLhep predicted [4]: 8.1 mL/min/kg
CCN(CC)C(=O)[C@@]1(c2ccc3c(c2)CCC3)C[C@H]1CN | 480 nM | 160 nM | > 10000 nM | –
CNCC[C@@H](Oc1ccccc1C)c1ccccc1 [ATOMOXETINE] | – | – | – | logD [5]: 0.8; logP [6]: 3.5; half-life [7]: 8 h; CLhep predicted [4]: 14.3 mL/min/kg; bioavailability [8]: 85%
CCN(CC)C(=O)[C@@]1(c2ccc3occc3c2)C[C@H]1CN | 280 nM | 47 nM | > 10000 nM | –
C#CCN(CC=C)C(=O)[C@@]1(c2ccc3c(c2)CCO3)C[C@H]1CN | 130 nM | 14 nM | > 10000 nM | –
CCN(CC1CC1)C(=O)[C@@]1(c2ccc3c(c2)OCCO3)C[C@H]1CN | 540 nM | 7.1 nM | > 10000 nM | –
CC1(C)C(CN)C1(C(=O)N1CCc2ccccc21)c1ccccc1 (racemic) | > 10000 nM | > 10000 nM | > 10000 nM | –
CC#CCN(CCC)C(=O)[C@@]1(c2ccc3c(c2)CCO3)C[C@H]1CN | 460 nM | 80 nM | > 10000 nM | –
C=C(F)CN(CC)C(=O)[C@@]1(c2ccc3c(c2)OCCO3)C[C@H]1CN | 112 nM | 5.2 nM | > 10000 nM | –
C=CCN(CC)C(=O)[C@@]1(c2ccc3c(c2)OCO3)C[C@H]1CN | 150 nM | 7.1 nM | > 10000 nM | –
C=CCN(CC=C)C(=O)[C@@]1(c2ccc3c(c2)CCO3)C[C@H]1CN | 270 nM | 4.5 nM | > 10000 nM | –
C=CCN(CCC)C(=O)[C@@]1(c2ccc3c(c2)CCO3)C[C@H]1CN | 1700 nM | 21 nM | > 10000 nM | –
C=CCN(CC#CC)C(=O)[C@@]1(c2ccc3c(c2)CCO3)C[C@H]1CN | 210 nM | 40 nM | > 10000 nM | –
CCN(CC)C(=O)[C@@]1(c2ccccc2)C[C@H]1CN [LEVOMILNACIPRAN] | – | – | – | logD [5]: -0.2; logP [6]: 1.6; CLhep predicted [4]: 5 mL/min/kg
NC[C@@H]1C[C@@]1(C(=O)N1CCc2ccccc21)c1ccc2c(c1)OCO2 | 28 nM | 4.2 nM | 640 nM | –
NCC1C(c2ccccc2)C1(C(=O)N1CCc2ccccc21)c1ccccc1 (racemic) | 560 nM | > 10000 nM | 4300 nM | –
C#CCN(C(=O)[C@@]1(c2ccc3c(c2)OCCO3)C[C@H]1CN)C1CC1 | 160 nM | 4.4 nM | > 10000 nM | –
CCN(CC)C(=O)[C@@]1(c2ccc3c(c2)CCO3)C[C@H]1CN | 2100 nM | 160 nM | > 10000 nM | –
CCN(CC)C(=O)C1(c2ccccc2)C(CN)C1(C)C (racemic) | > 10000 nM | > 10000 nM | 4500 nM | –
NC[C@@H]1C[C@@]1(C(=O)N1CCc2sccc2C1)c1ccc2c(c1)OCO2 | 14 nM | 9.4 nM | > 10000 nM | –
C=CCN(CC)C(=O)C1(c2ccccc2)C(CN)C1c1ccccc1 (racemic) | 3400 nM | > 10000 nM | > 10000 nM | –
C#CCN(CC#C)C(=O)[C@@]1(c2ccc3c(c2)CCO3)C[C@H]1CN | 145 nM | 17 nM | > 10000 nM | –
C=C(F)CN(C)C(=O)[C@@]1(c2ccc3c(c2)OCCO3)C[C@H]1CN | 100 nM | 8.1 nM | > 10000 nM | –
CCN(CC)C(=O)[C@@]1(c2ccc3c(c2)OCO3)C[C@H]1CN | 480 nM | 12 nM | > 10000 nM | pKa [10]: 9.6; logD [5]: 0.4; logP [6]: 1.7; Papp [9]: 4.7 ×10⁻⁶ cm/s; CLhep predicted [4]: 7.9 mL/min/kg
CCN(CC)C(=O)C1(c2ccccc2)CC1(C)CN (racemic) | 6900 nM | > 10000 nM | > 10000 nM | –
CCN(CC)C(=O)C1(c2ccccc2)CC1CN (racemic) | – | – | – | logD [5]: 0; CL renal [11]: 350 mL/min
C=CCN(CC=C)C(=O)[C@@]1(c2ccc3c(c2)OCO3)C[C@H]1CN | 58 nM | 7 nM | > 10000 nM | –

The next lines start with results.

IC50 [1] | IC50 [2] | IC50 [3] | SMILES | further results
430 nM | 18 nM | > 10000 nM | C=CCN(CC)C(=O)[C@@]1(c2ccc3c(c2)CCO3)C[C@H]1CN | –
125 nM | 5.9 nM | > 10000 nM | C#CCN(CC)C(=O)[C@@]1(c2ccc3c(c2)OCCO3)C[C@H]1CN | –
64 nM | 15 nM | > 10000 nM | C=CCN(CC#CC)C(=O)[C@@]1(c2ccc3c(c2)OCO3)C[C@H]1CN | –
25 nM | 1.7 nM | > 10000 nM | C#CCN(CC#C)C(=O)[C@@]1(c2ccc3c(c2)OCCO3)C[C@H]1CN | Papp [9]: 5.2 ×10⁻⁶ cm/s; CLhep predicted [4]: 7.9 mL/min/kg
39 nM | 3.2 nM | 2900 nM | C=CCN(CC(=C)F)C(=O)[C@@]1(c2ccc3c(c2)OCCO3)C[C@H]1CN | –
6400 nM | > 10000 nM | > 10000 nM | CCN(CC)C(=O)C1(c2ccccc2)C(CN)C1c1ccccc1 (racemic) | –
49 nM | 7.6 nM | 4300 nM | C#CCN(CC#C)C(=O)[C@@]1(c2ccc3c(c2)OCO3)C[C@H]1CN | –
77 nM | 20 nM | 3600 nM | NC[C@@H]1C[C@@]1(C(=O)C1NCc2ccccc21)c1ccc2c(c1)OCO2 (stereo partly drawn) | –
> 10000 nM | 6400 nM | > 10000 nM | C=CCN(CC)C(=O)C1(c2ccccc2)C(CN)C1(C)C (racemic) | –
26 nM | 6.5 nM | 3600 nM | NC[C@@H]1C[C@@]1(C(=O)N1CCc2ccccc2C1)c1ccc2c(c1)OCO2 | –
140 nM | 6.3 nM | > 10000 nM | CCN(CC)C(=O)[C@@]1(c2ccc3c(c2)OCCO3)C[C@H]1CN | CLhep predicted [4]: 4.4 mL/min/kg
320 nM | 5.8 nM | 5100 nM | NC[C@@H]1C[C@@]1(C(=O)N1CCOc2ccccc21)c1ccc2c(c1)OCO2 | –
210 nM | 3.9 nM | > 10000 nM | C#CCN(CC1CC1)C(=O)[C@@]1(c2ccc3c(c2)OCCO3)C[C@H]1CN | –
54 nM | 4 nM | > 10000 nM | C#CCN(CC(=C)F)C(=O)[C@@]1(c2ccc3c(c2)OCCO3)C[C@H]1CN | –
370 nM | 73 nM | > 10000 nM | CCN(CC)C(=O)[C@@]1(c2cccc(F)c2)C[C@H]1CN | –
